# Laboratory results as given in PMC3448795 (Biochemistry, 2012).
# Like-named read-outs stand apart in the source and are kept apart here. Peptide text beside a SMILES is read from it.
# Experiments:
# [1] = biological target: T1, human S100B (Homo sapiens, UniProt P04271); assay: NMR 1H-15N HSQC titration with LineShapeKin line shape analysis; type: binding; conditions: for Kon (Table 3) / Kon (Table 4) / Kon (Table 2): low salt; for Kon (Table 2): Kd from ITC
# T1 sequence (P04271 2-92 limits assumed): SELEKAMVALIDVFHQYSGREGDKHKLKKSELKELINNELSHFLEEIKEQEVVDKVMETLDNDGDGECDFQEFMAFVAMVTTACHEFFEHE
# [2] = biological target: T1, human S100B; assay: Isothermal titration calorimetry; type: binding
# [3] = calculated from Kd and Koff of Table 3
# [4] = calculated from Kd and Koff of Table 4
# [5] = calculated from Kd and Koff, 35°C
Structure (SMILES),"Kon (Table 3) [1, 3]",Kd [2],"Kd ([1]; Kd, App (Table 4), high salt, LineShapeKin, NMR only, 35°C, from 2D matrix)","Kon (Table 3), high salt ([1]; calculated from Kd and Koff of Table 3, high salt)","Kon (Table 4), high salt ([1]; calculated from Kd and Koff of Table 4, high salt)","Kon (Table 4) [1, 4]","Kon (Table 2), high salt ([1]; calculated from Kd and Koff, 35°C, high salt)","Kon (Table 2) [1, 5]","koff ([1]; read-out: Koff (Table 3), high salt, LineShapeKin, NMR only, 35°C, high salt)","koff ([1]; read-out: Koff (Table 4), high salt, LineShapeKin, NMR only, 35°C, high salt, from 2D matrix)","kon ([1]; read-out: Kon (text, Table 3 analysis))","ΔCp, exp, high salt ([2]; slope of ΔHcal versus temperature, ITC, buffer plus 120 mM NaCl)","kon ([1]; read-out: Kon (text, Table 2 analysis))","Kon, first peptide binding event ([1]; bounds from simulated Koff and ITC Kd1)","Kon, second peptide binding event ([1]; bounds from simulated Koff and ITC Kd2)"
CC[C@H](C)[C@H](NC(=O)[C@H](CCCCN)NC(=O)[C@H](CC(C)C)NC(=O)[C@H](CC(C)C)NC(=O)[C@@H]1CCCN1C(=O)[C@H](CC(C)C)NC(=O)[C@H](CCCCN)NC(=O)[C@@H]1CCCN1C(=O)[C@H](CCCNC(=N)N)NC(=O)[C@@H](NC(=O)[C@H](CCC(N)=O)NC(=O)[C@H](CC(N)=O)NC(C)=O)C(C)C)C(=O)N[C@@H](CC(C)C)C(=O)N[C@@H](Cc1c[nH]cn1)C(=O)N[C@@H](C)C(=O)N[C@@H](C)C(=O)NCC(=O)N[C@@H](C)C(=O)N[C@@H](CCC(N)=O)C(=O)N[C@@H](Cc1ccc(O)cc1)C(N)=O [HDM4] (Ac-NQVRPKLPLLKILHAAGAQY-NH2),3 ± 1 1×10^7 M^-1 s^-1,70 ± 30 nM,–,–,–,–,–,–,–,–,–,–,–,–,–
CSCC[C@H](NC(=O)[C@H](CC(C)C)NC(=O)[C@H](CCCCN)NC(=O)[C@H](CCCCN)NC(=O)[C@H](Cc1c[nH]cn1)NC(=O)[C@H](CCCNC(=N)N)NC(=O)[C@H](CO)NC(=O)[C@@H](NC(=O)[C@H](CO)NC(=O)[C@H](CCC(N)=O)NC(=O)CNC(=O)[C@H](CCCCN)NC(=O)[C@H](CCCCN)NC(=O)[C@H](CO)NC(=O)[C@H](CCCCN)NC(=O)[C@H](CC(C)C)NC(=O)[C@H](Cc1c[nH]cn1)NC(=O)[C@H](CO)NC(=O)[C@H](Cc1ccc(O)cc1)NC(C)=O)[C@@H](C)O)C(=O)N[C@@H](Cc1ccccc1)C(=O)N[C@@H](CCCCN)C(=O)N[C@H](C(=O)N[C@@H](CCC(=O)O)C(N)=O)[C@@H](C)O [p53],80 ± 30 1×10^7 M^-1 s^-1,2000 ± 1000 nM,10000 ± 2000 nM,7.5 ± 1.5 1×10^7 M^-1 s^-1,10 ± 2 1×10^7 M^-1 s^-1,100 ± 40 1×10^7 M^-1 s^-1,3 ± 1 1×10^7 M^-1 s^-1,40 ± 16 1×10^7 M^-1 s^-1,750 ± 150 s⁻¹,1000 ± 200 s⁻¹,8e+08 M⁻¹ s⁻¹,-1.2 ± 0.3 kJ·mol^-1 K^-1,–,–,–
CC(=O)N[C@@H](CCC(=O)O)C(=O)N[C@H](C(=O)N[C@@H](CC(C)C)C(=O)N[C@H](C(=O)N[C@@H](CCCNC(=N)N)C(=O)N1CCC[C@H]1C(=O)N[C@@H](CCCCN)C(=O)N1CCC[C@H]1C(=O)N[C@@H](CC(C)C)C(=O)N[C@@H](CC(C)C)C(=O)N[C@@H](CC(C)C)C(=O)N[C@@H](CCCCN)C(=O)N[C@@H](CC(C)C)C(=O)N[C@@H](CC(C)C)C(=O)N[C@@H](CCCCN)C(=O)N[C@@H](CO)C(=O)N[C@H](C(=O)NCC(=O)N[C@@H](C)C(=O)N[C@@H](Cc1ccc(O)cc1)C(N)=O)C(C)C)C(C)C)[C@@H](C)O [HDM2] (Ac-ETLVRPKPLLLKLLKSVGAY-NH2),160 ± 70 1×10^7 M^-1 s^-1,500 ± 200 nM,–,–,–,100 ± 40 1×10^7 M^-1 s^-1,–,30 ± 11 1×10^7 M^-1 s^-1,–,–,–,–,2.8e+08 M⁻¹ s⁻¹,–,–
CC(=O)N[C@@H](CCCCN)C(=O)N[C@@H](CCCNC(=N)N)C(=O)N[C@@H](CC(C)C)C(=O)N[C@@H](CCCNC(=N)N)C(=O)N[C@@H](CCCNC(=N)N)C(=O)N[C@@H](CO)C(=O)N[C@@H](C)C(=O)N[C@@H](Cc1c[nH]cn1)C(=O)N[C@@H](C)C(=O)N[C@@H](CCCNC(=N)N)C(=O)N[C@@H](CCCCN)C(=O)N[C@@H](CCC(=O)O)C(=O)N[C@H](C(=O)N[C@@H](CCC(=O)O)C(=O)N[C@@H](Cc1ccccc1)C(=O)N[C@@H](CC(C)C)C(=O)N[C@@H](CCCNC(=N)N)C(=O)N[C@@H](CC(C)C)C(=O)N[C@@H](CCCCN)C(=O)N[C@@H](CCCNC(=N)N)C(=O)N[C@H](C(=O)N[C@@H](CCCNC(=N)N)C(=O)N[C@@H](CC(C)C)C(=O)NCC(=O)N[C@@H](CC(C)C)C(=O)N[C@@H](CCC(=O)O)C(=O)N[C@@H](Cc1ccc(O)cc1)C(N)=O)[C@@H](C)O)[C@@H](C)O [NDR] (Ac-KRLRRSAHARKETEFLRLKRTRLGLEY-NH2),–,–,–,–,–,–,–,–,–,–,–,–,–,13-63 1×10^7 M^-1 s^-1,1-10 1×10^7 M^-1 s^-1
